Results reported in patent US20230391838A1 (priority 2020, published 2023).
*1 amine or outer side, *2 acyl side, *3 side chain or, on linkers, in order; H or OH if unused. Where a SMILES comes first, the peptide text is derived from it. Bridges are numbered along the chain shown (N, C = ends). [ ]: non-standard residue; d: D form. Tyr(3-I) = N[C@@H](Cc1ccc(O)c(I)c1)C(=O)O; β3hY = N[C@H](CC(=O)O)Cc1ccc(O)cc1; CH2 = C([*:1])[*:2]

Settings: pH 7.4

Q: For `C[C@@H](O)[C@@H]1NC(=O)[C@@H]2CSCSC[C@@H](C(=O)N[C@H](CC(=O)N[C@@H](CCCNC(=N)N)C(=O)O)Cc3ccc(O)cc3)NC(=O)[C@H](CCC(N)=O)NC(=O)[C@H](Cc3ccc(O)c(I)c3)NC(=O)[C@H](CCCNC(=N)N)NC(=O)[C@H](CSSC[C@H](NC(=O)CN)C(=O)N2)NC(=O)[C@H](CCCNC(=N)N)NC(=O)[C@@H]2CCCN2C(=O)[C@H](CC(=O)O)NC1=O` [RgIA-5524, G C^I C^II T D P R C^III R (iY) Q C^IV (bhY) R] (H-GCCTDPRCR[Tyr(3-I)]QC[β3hY]R-OH; disulfide 2-8; linker 3-12 via CH2), which “disulfide scrambling in presence of reduced glutathione (in words)” value is on record?
A: The value was “largely suppress disulfide scrambling”.
